CCCC[n+]1ccn(C)c1.O=S(=O)([N-]S(=O)(=O)C(F)(F)F)C(F)(F)F
Conditions	surface tension liquid-gas [mN/m]
284.15 K, Wilhelmy plate method	33.46
284.19 K, Ring tensiometer	33.48
287.81 K, Wilhelmy plate method	33.27
294.2 K, Wilhelmy plate method	33.02
298.35 K, Wilhelmy plate method	32.85
298.41 K, Ring tensiometer	33.04
301.96 K, Wilhelmy plate method	32.66
306.81 K, Wilhelmy plate method	32.44
310.81 K, Wilhelmy plate method	32.26
317.93 K, Ring tensiometer	31.97
317.94 K, Wilhelmy plate method	31.97
322.99 K, Wilhelmy plate method	31.74
327.92 K, Wilhelmy plate method	31.58
332.97 K, Wilhelmy plate method	31.3
337.12 K, Wilhelmy plate method	31.17
343.28 K, Wilhelmy plate method	30.91
347.82 K, Wilhelmy plate method	30.76
348.05 K, Ring tensiometer	30.41
351.56 K, Wilhelmy plate method	30.53

CCn1cc[n+](C)c1.O=S(=O)([N-]S(=O)(=O)C(F)(F)F)C(F)(F)F
Conditions	surface tension liquid-gas [mN/m]
283.16 K, Wilhelmy plate method	36.78
283.2 K, Ring tensiometer	37.07
287.3 K, Wilhelmy plate method	36.58
292.6 K, Wilhelmy plate method	36.35
297.89 K, Wilhelmy plate method	36.13
297.95 K, Ring tensiometer	36.12
302.66 K, Wilhelmy plate method	35.88
308.82 K, Wilhelmy plate method	35.61
313.3 K, Wilhelmy plate method	35.36
317.77 K, Wilhelmy plate method	35.14
323.16 K, Ring tensiometer	34.81
323.19 K, Wilhelmy plate method	34.84
327.91 K, Wilhelmy plate method	34.66
327.97 K, Ring tensiometer	34.73
333.82 K, Wilhelmy plate method	34.29
333.86 K, Ring tensiometer	34.1
337.84 K, Wilhelmy plate method	34.06
337.88 K, Ring tensiometer	34.09
343.6 K, Wilhelmy plate method	33.79
346.9 K, Ring tensiometer	33.74
346.93 K, Wilhelmy plate method	33.66
351.54 K, Wilhelmy plate method	33.42
351.67 K, Ring tensiometer	33.2

CCCCCC[n+]1ccn(C)c1.O=S(=O)([N-]S(=O)(=O)C(F)(F)F)C(F)(F)F
Wilhelmy plate method
Conditions	surface tension liquid-gas [mN/m]
283.17 K	32.34
287.86 K	32.07
293.15 K	31.81
298.26 K	31.59
303.16 K	31.34
308.99 K	30.99
314.39 K	30.71
318.21 K	30.48
323.09 K	30.26
327.93 K	30
333.53 K	29.8
337.7 K	29.45
342.32 K	29.28
347.3 K	29.06
351.11 K	28.91

CCCCn1cc[n+](C)c1.F[B-](F)(F)F [1-butyl-3-methylimidazolium tetrafluoroborate]
Conditions	surface tension liquid-gas [mN/m]
284.17 K, Wilhelmy plate method	45.29
284.25 K, Ring tensiometer	45.44
288.28 K, Wilhelmy plate method	44.98
288.35 K, Ring tensiometer	45.15
293.32 K, Wilhelmy plate method	44.56
293.48 K, Ring tensiometer	44.57
298.48 K, Wilhelmy plate method	44.26
298.5 K, Ring tensiometer	44.41
303.41 K, Wilhelmy plate method	43.84
303.51 K, Ring tensiometer	44.05
308.38 K, Wilhelmy plate method	43.68
308.42 K, Ring tensiometer	43.63
313.73 K, Ring tensiometer	43.21
313.79 K, Wilhelmy plate method	43.21
318.15 K, Wilhelmy plate method	43
318.19 K, Ring tensiometer	43.19
323.01 K, Ring tensiometer	42.84
323.03 K, Wilhelmy plate method	42.58
327.8 K, Wilhelmy plate method	42.46
327.9 K, Ring tensiometer	42.62
333.11 K, Wilhelmy plate method	42.15
333.12 K, Ring tensiometer	42.07
337.64 K, Wilhelmy plate method	41.96
337.65 K, Ring tensiometer	41.78
342.32 K, Ring tensiometer	41.71
342.4 K, Wilhelmy plate method	41.56
348.62 K, Ring tensiometer	41.16
348.74 K, Wilhelmy plate method	41.3
351.23 K, Wilhelmy plate method	40.89
351.44 K, Ring tensiometer	40.85
